In patent publication US20100256107A1, “PREPARATION COMPOSITION” (Dainippon Sumitomo Pharma Co., Ltd., priority 2007, published 2010):

What was measured:
[1] = Stability in an aqueous solution formulation containing sodium carbonate (HPLC); format: physicochemical
Protocol: Multiple vials were prepared, and Compound A and sodium carbonate in amounts indicated in Table 9 were weighed and put in each vial. A physiological saline (100 ml) was added to each vial, amounts Compound A and its degradation, Compounds B and C were measured just after dissolving and after preserving for 6 hours at 25° C.
HPLC was Measured Under the Same Conditions as Test Example 1.
The numbers described in columns of “just after dissolution” and “after preservation for 6 hours at 25° C.” on Table 10 show area % per total peaks which appear until 55 minutes under the above HPLC conditions.

[2] = Control of coloration in an aqueous solution formulation containing sodium bicarbonate (absorbance 380 nm); format: physicochemical; settings: for change in absorbance, just after dissolution / change in absorbance, preservation time 1 hr / change in absorbance, preservation time 2 hr / change in absorbance, preservation time 3 hr / change in absorbance, preservation time 4 hr / change in absorbance, preservation time 5 hr / change in absorbance, preservation time 6 hr: 25° C., 380 nm
Protocol: Multiple vials were prepared, and Compound A, imipenem and sodium bicarbonate in amounts indicated in Table 11 were weighed, respectively and each mixture was put in each vial. A physiological saline (100 ml) was added to each vial to be dissolved. In addition, to a vial containing Tienam® for infusion (0.5 g potency/vial) was added a physiological saline (100 ml). Coloration (change of color) just after dissolution and when the solution was preserved at one hour intervals for 6 hours at 25° C. were measured by absorbency.
• Conditions of measurement by spectrophotometer; • cell: quartz 12.5 mm×12.5 mm×45 mm, capacity 3.5 ml • wavelength: 380 nm • measurement temperature: 25° C. • instrument: UV-2200A (Shimadzu)
The numbers described in columns of “just after dissolution” and each “preservation time” on Table 12 show values of change in absorbance just after dissolution when measured under the above conditions.

[3] = Comp. A 0.5 g/vial + sodium carbonate 0.0 mg/vial in physiological saline 100 ml
[4] = Comp. A 0.5 g/vial + sodium carbonate 1.0 mg/vial in physiological saline 100 ml
[5] = Comp. A 0.5 g/vial + sodium carbonate 1.5 mg/vial in physiological saline 100 ml
[6] = Comp. A 0.5 g/vial + sodium carbonate 2.0 mg/vial in physiological saline 100 ml
[7] = Comp. A 0.5 g/vial + sodium carbonate 2.5 mg/vial in physiological saline 100 ml
[8] = Comp. A 0.5 g/vial + sodium carbonate 3.0 mg/vial in physiological saline 100 ml
[9] = Comp. A 0.5 g/vial + sodium carbonate 3.5 mg/vial in physiological saline 100 ml
[10] = Comp. A 0.5 g/vial + sodium carbonate 4.0 mg/vial in physiological saline 100 ml
[11] = Comp. A 0.5 g/vial + sodium carbonate 5.0 mg/vial in physiological saline 100 ml
[12] = 0.5 g/vial + sodium bicarbonate 0.0 mg/vial in physiological saline 100 ml
[13] = 0.5 g/vial + sodium bicarbonate 1.0 mg/vial in physiological saline 100 ml
[14] = 0.5 g/vial + sodium bicarbonate 2.5 mg/vial in physiological saline 100 ml
[15] = 0.5 g/vial + sodium bicarbonate 5.0 mg/vial in physiological saline 100 ml
[16] = 0.5 g/vial + sodium bicarbonate 10 mg/vial in physiological saline 100 ml
[17] = 0.5 g/vial + sodium bicarbonate 20 mg/vial in physiological saline 100 ml
[18] = 0.5 g/vial + sodium bicarbonate 50 mg/vial in physiological saline 100 ml

For `C[C@H]1C=C(c2csc(SC3=C(C(=O)O)N4C(=O)[C@H]([C@@H](C)O)[C@H]4[C@H]3C)n2)CN1` [Compound A, (4R,5S,6S)-6-[(1R)-1-hydroxyethyl]-4-methyl-3-({4-[(5S)-5-methyl-2,5-dihydro-1H-pyrrol-3-yl]-1,3-thiazol-2-yl}sulfanyl)-7-oxo-1-azabicyclo[3.2.0]hept-2-ene-2-carboxylic acid], the “Comp. A after preservation for 6 hrs. 25° C.” value (from here on “Comp. A after preservation”) [1, 3] was 96.3 area %, the “Comp. A just after dissolution” value [1, 3] was 99.0 area % and the “Comp. B after preservation for 6 hrs. 25° C.” value (“Comp. B after preservation” for short) [1, 3] was 2.6 area %. The “Comp. B just after dissolution” value [1, 3] was 0.5 area %, the “Comp. C after preservation for 6 hrs. 25° C.” value (“Comp. C after preservation” for short) [1, 3] was 0.4 area % and the “Comp. C just after dissolution” value [1, 3] was 0.0 area %. The “Comp. A after preservation” value [1, 4] was 96.7 area %, the “Comp. A just after dissolution” value [1, 4] was 99.0 area % and the “Comp. B after preservation” value [1, 4] was 2.6 area %. For the same compound, the “Comp. B just after dissolution” value [1, 4] was 0.6 area %, the “Comp. C after preservation” value [1, 4] was 0.2 area % and the “Comp. C just after dissolution” value [1, 4] was 0.0 area %. The “Comp. A after preservation” value [1, 5] was 96.5 area %, the “Comp. A just after dissolution” value [1, 5] was 98.9 area % and the “Comp. B after preservation” value [1, 5] was 2.8 area %. The “Comp. B just after dissolution” value [1, 5] was 0.5 area %, the “Comp. C after preservation” value [1, 5] was at most 0.1 area % and the “Comp. C just after dissolution” value [1, 5] was 0.0 area %. For the same compound, the “Comp. C after preservation” value ([1]; Comp. A 0.5 g/vial + sodium carbonate 1.5 mg/vial in physiological saline 100 ml, listed as Comp. A) was 0.0 area %, the “Comp. A after preservation” value [1, 6] was 96.2 area % and the “Comp. A just after dissolution” value [1, 6] was 99.0 area %. For the same compound, the “Comp. B after preservation” value [1, 6] was 3.0 area %, the “Comp. B just after dissolution” value [1, 6] was 0.5 area % and the “Comp. C after preservation” value [1, 6] was 0.0 area %. For the same compound, the “Comp. C just after dissolution” value [1, 6] was 0.0 area %, the “Comp. A after preservation” value [1, 7] was 96.0 area % and the “Comp. A just after dissolution” value [1, 7] was 98.9 area %. The “Comp. B after preservation” value [1, 7] was 3.2 area %, the “Comp. B just after dissolution” value [1, 7] was 0.5 area % and the “Comp. C after preservation” value [1, 7] was 0.0 area %. The “Comp. C just after dissolution” value [1, 7] was 0.0 area %, the “Comp. A after preservation” value [1, 8] was 95.7 area % and the “Comp. A just after dissolution” value [1, 8] was 99.0 area %. For the same compound, the “Comp. B after preservation” value [1, 8] was 3.6 area %, the “Comp. B just after dissolution” value [1, 8] was 0.5 area % and the “Comp. C after preservation” value [1, 8] was 0.0 area %. For the same compound, the “Comp. C just after dissolution” value [1, 8] was 0.0 area %, the “Comp. A after preservation” value [1, 9] was 95.4 area % and the “Comp. A just after dissolution” value [1, 9] was 98.9 area %. The “Comp. B after preservation” value [1, 9] was 3.8 area %, the “Comp. B just after dissolution” value [1, 9] was 0.5 area % and the “Comp. C after preservation” value [1, 9] was 0.0 area %. For the same compound, the “Comp. C just after dissolution” value [1, 9] was 0.0 area %, the “Comp. A after preservation” value [1, 10] was 95.1 area % and the “Comp. A just after dissolution” value [1, 10] was 99.0 area %. For the same compound, the “Comp. B after preservation” value [1, 10] was 4.1 area %, the “Comp. B just after dissolution” value [1, 10] was 0.5 area % and the “Comp. C after preservation” value [1, 10] was 0.0 area %. For the same compound, the “Comp. C just after dissolution” value [1, 10] was 0.0 area %, the “Comp. A after preservation” value [1, 11] was 94.8 area % and the “Comp. A just after dissolution” value [1, 11] was 98.9 area %. For the same compound, the “Comp. B after preservation” value [1, 11] was 4.5 area %, the “Comp. B just after dissolution” value [1, 11] was 0.6 area % and the “Comp. C after preservation” value [1, 11] was 0.0 area %. For the same compound, the “Comp. C just after dissolution” value [1, 11] was 0.0 area %, the “reduction of amount of Compound A” value ([1]; sodium carbonate increased to 5 mg from 2 mg per Compound A 500 mg, 6 hours at 25° C.) was 1.4% and the “change in absorbance, just after dissolution” value (from here on “change in absorbance, just”) [2, 12] was 0.00 Abs. The “change in absorbance, preservation time 1 hr” value [2, 12] was 0.01 Abs, the “change in absorbance, preservation time 2 hr” value [2, 12] was 0.03 Abs and the “change in absorbance, preservation time 3 hr” value [2, 12] was 0.05 Abs. For the same compound, the “change in absorbance, preservation time 4 hr” value [2, 12] was 0.07 Abs, the “change in absorbance, preservation time 5 hr” value [2, 12] was 0.11 Abs and the “change in absorbance, preservation time 6 hr” value [2, 12] was 0.13 Abs. For the same compound, the “change in absorbance, just” value [2, 13] was 0.00 Abs, the “change in absorbance, preservation time 1 hr” value [2, 13] was 0.00 Abs and the “change in absorbance, preservation time 2 hr” value [2, 13] was 0.01 Abs. The “change in absorbance, preservation time 3 hr” value [2, 13] was 0.02 Abs, the “change in absorbance, preservation time 4 hr” value [2, 13] was 0.04 Abs and the “change in absorbance, preservation time 5 hr” value [2, 13] was 0.06 Abs. For the same compound, the “change in absorbance, preservation time 6 hr” value [2, 13] was 0.08 Abs, the “change in absorbance, just” value [2, 14] was 0.00 Abs and the “change in absorbance, preservation time 1 hr” value [2, 14] was 0.00 Abs. For the same compound, the “change in absorbance, preservation time 2 hr” value [2, 14] was 0.00 Abs, the “change in absorbance, preservation time 3 hr” value [2, 14] was 0.00 Abs and the “change in absorbance, preservation time 4 hr” value [2, 14] was 0.00 Abs. The “change in absorbance, preservation time 5 hr” value [2, 14] was 0.01 Abs, the “change in absorbance, preservation time 6 hr” value [2, 14] was 0.01 Abs and the “change in absorbance, just” value [2, 15] was 0.00 Abs. The “change in absorbance, preservation time 1 hr” value [2, 15] was 0.00 Abs, the “change in absorbance, preservation time 2 hr” value [2, 15] was 0.00 Abs and the “change in absorbance, preservation time 3 hr” value [2, 15] was 0.00 Abs. The “change in absorbance, preservation time 4 hr” value [2, 15] was 0.00 Abs, the “change in absorbance, preservation time 5 hr” value [2, 15] was 0.00 Abs and the “change in absorbance, preservation time 6 hr” value [2, 15] was 0.00 Abs. The “change in absorbance, just” value [2, 16] was 0.00 Abs, the “change in absorbance, preservation time 1 hr” value [2, 16] was 0.00 Abs and the “change in absorbance, preservation time 2 hr” value [2, 16] was 0.00 Abs. For the same compound, the “change in absorbance, preservation time 3 hr” value [2, 16] was 0.00 Abs, the “change in absorbance, preservation time 4 hr” value [2, 16] was 0.00 Abs and the “change in absorbance, preservation time 5 hr” value [2, 16] was 0.00 Abs. For the same compound, the “change in absorbance, preservation time 6 hr” value [2, 16] was 0.00 Abs, the “change in absorbance, just” value [2, 17] was 0.00 Abs and the “change in absorbance, preservation time 1 hr” value [2, 17] was 0.00 Abs. For the same compound, the “change in absorbance, preservation time 2 hr” value [2, 17] was 0.00 Abs, the “change in absorbance, preservation time 3 hr” value [2, 17] was 0.00 Abs and the “change in absorbance, preservation time 4 hr” value [2, 17] was 0.00 Abs. The “change in absorbance, preservation time 5 hr” value [2, 17] was 0.00 Abs, the “change in absorbance, preservation time 6 hr” value [2, 17] was 0.00 Abs and the “change in absorbance, just” value [2, 18] was 0.00 Abs. The “change in absorbance, preservation time 1 hr” value [2, 18] was 0.00 Abs, the “change in absorbance, preservation time 2 hr” value [2, 18] was 0.00 Abs and the “change in absorbance, preservation time 3 hr” value [2, 18] was 0.00 Abs. The “change in absorbance, preservation time 4 hr” value [2, 18] was 0.00 Abs, the “change in absorbance, preservation time 5 hr” value [2, 18] was 0.00 Abs and the “change in absorbance, preservation time 6 hr” value [2, 18] was 0.00 Abs. For the same compound, the “suppression of coloration of the solution” value ([2]; at least 2.5 mg (0.005 part by weight) of sodium bicarbonate per 500 mg) was “observed” and the “coloration by the visual inspection compared with a solution just after dissolution” value ([2]; sodium bicarbonate 2.5 mg per 500 mg, physiological saline, 6 hours at 25° C.) was “coloration was not observed by the visual inspection”.
